Laboratory results as given in PubChem BioAssay (NCI).
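Assay format: 96-well plates, 48-hour exposure. GI50: concentration for 50% inhibition of growth. TGI denotes the concentration required for complete inhibition of growth.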

Columns and labels:
Test in all cases: NCI anticancer screen, dose series, 48 h
MDA-MB-435 = system: MDA-MB-435
SW-620 colon = system: SW-620 colon
SF-295 CNS = system: SF-295 CNS
SF-539 CNS = system: SF-539 CNS
SK-MEL-5 melanoma = system: SK-MEL-5 melanoma
NCI-H522 lung = system: NCI-H522 lung
NCI-H226 lung = system: NCI-H226 lung
CAKI-1 renal = system: CAKI-1 renal
SK-MEL-28 melanoma = system: SK-MEL-28 melanoma
UACC-257 melanoma = system: UACC-257 melanoma
M14 melanoma = system: M14 melanoma
MCF7 breast = system: MCF7 breast
U251 CNS = system: U251 CNS
K-562 leukemia = system: K-562 leukemia
OVCAR-8 ovarian = system: OVCAR-8 ovarian
SR leukemia = system: SR leukemia
NCI-H460 lung = system: NCI-H460 lung
IGROV1 ovarian = system: IGROV1 ovarian
ACHN renal = system: ACHN renal
HCC-2998 colon = system: HCC-2998 colon
HOP-62 NSCLC = system: HOP-62 NSCLC
CCRF-CEM leukemia = system: CCRF-CEM leukemia
SN12C renal = system: SN12C renal
SK-MEL-2 melanoma = system: SK-MEL-2 melanoma
KM12 colon = system: KM12 colon
OVCAR-5 ovarian = system: OVCAR-5 ovarian
HS 578T breast = system: HS 578T breast
HCT-15 colon = system: HCT-15 colon
DU-145 prostate = system: DU-145 prostate
RPMI-8226 leukemia = system: RPMI-8226 leukemia
BT-549 breast = system: BT-549 breast
NCI-H23 lung = system: NCI-H23 lung
UACC-62 melanoma = system: UACC-62 melanoma
SF-268 CNS = system: SF-268 CNS
HOP-92 NSCLC = system: HOP-92 NSCLC
T-47D breast = system: T-47D breast
PC-3 prostate = system: PC-3 prostate
UO-31 renal = system: UO-31 renal
SK-OV-3 ovarian = system: SK-OV-3 ovarian
TK-10 renal = system: TK-10 renal
SNB-75 CNS = system: SNB-75 CNS
HL-60(TB) leukemia = system: HL-60(TB) leukemia
OVCAR-4 ovarian = system: OVCAR-4 ovarian
COLO 205 colon = system: COLO 205 colon
A498 renal = system: A498 renal
OVCAR-3 ovarian = system: OVCAR-3 ovarian
A549 NSCLC = system: A549 NSCLC
MOLT-4 leukemia = system: MOLT-4 leukemia
LOX IMVI melanoma = system: LOX IMVI melanoma
HT29 colon = system: HT29 colon
NCI/ADR-RES ovarian = system: NCI/ADR-RES ovarian
MALME-3M melanoma = system: MALME-3M melanoma
786-0 renal = system: 786-0 renal
MDA-MB-231 breast = system: MDA-MB-231 breast
SNB-19 CNS = system: SNB-19 CNS

COc1ccc(Nc2nc(NCc3ccccc3)c3ccccc3n2)cc1
GI50 (MDA-MB-435): 1.92 µM
TGI (MDA-MB-435): 3.85 µM
GI50 (SW-620 colon): 2.82 µM
TGI (SW-620 colon): 10.4 µM
GI50 (SF-295 CNS): 4.78 µM
TGI (SF-295 CNS): 23.4 µM
GI50 (SF-539 CNS): 9.52 µM
TGI (SF-539 CNS): 23.9 µM
GI50 (SK-MEL-5 melanoma): 1.68 µM
TGI (SK-MEL-5 melanoma): 3.14 µM
GI50 (NCI-H522 lung): 3.66 µM
TGI (NCI-H522 lung): 16.1 µM
GI50 (NCI-H226 lung): 11.5 µM
TGI (NCI-H226 lung): 37.1 µM
GI50 (CAKI-1 renal): 3.69 µM
TGI (CAKI-1 renal): 14 µM
GI50 (SK-MEL-28 melanoma): 2.03 µM
TGI (SK-MEL-28 melanoma): 4.1 µM
GI50 (UACC-257 melanoma): 3.82 µM
TGI (UACC-257 melanoma): 13.8 µM
GI50 (M14 melanoma): 2.3 µM
TGI (M14 melanoma): 5.73 µM
GI50 (MCF7 breast): 1.81 µM
TGI (MCF7 breast): 3.63 µM
GI50 (U251 CNS): 2.17 µM
TGI (U251 CNS): 3.97 µM
GI50 (K-562 leukemia): 2.01 µM
TGI (K-562 leukemia): 5.71 µM
GI50 (OVCAR-8 ovarian): 2.17 µM
TGI (OVCAR-8 ovarian): 5.15 µM
GI50 (SR leukemia): 2.19 µM
TGI (SR leukemia): 6.01 µM
GI50 (NCI-H460 lung): 3.34 µM
TGI (NCI-H460 lung): 12.6 µM
GI50 (IGROV1 ovarian): 7.12 µM
TGI (IGROV1 ovarian): 25.7 µM
GI50 (ACHN renal): 3.38 µM
TGI (ACHN renal): 14.1 µM
GI50 (HCC-2998 colon): 2.9 µM
TGI (HCC-2998 colon): 7.6 µM
GI50 (HOP-62 NSCLC): 10.1 µM
TGI (HOP-62 NSCLC): 22.4 µM
GI50 (CCRF-CEM leukemia): 2.76 µM
TGI (CCRF-CEM leukemia): 9.19 µM
GI50 (SN12C renal): 5.19 µM
TGI (SN12C renal): 19.6 µM
GI50 (SK-MEL-2 melanoma): 8.72 µM
TGI (SK-MEL-2 melanoma): 21.7 µM
GI50 (KM12 colon): 3.81 µM
TGI (KM12 colon): 13.8 µM
GI50 (OVCAR-5 ovarian): 10.1 µM
TGI (OVCAR-5 ovarian): 28 µM
GI50 (HS 578T breast): 10.9 µM
TGI (HS 578T breast): 30.5 µM
GI50 (HCT-15 colon): 3.69 µM
TGI (HCT-15 colon): 19 µM
GI50 (DU-145 prostate): 8.75 µM
TGI (DU-145 prostate): 21.9 µM
GI50 (RPMI-8226 leukemia): 1.85 µM
TGI (RPMI-8226 leukemia): 4.85 µM
GI50 (BT-549 breast): 4.57 µM
TGI (BT-549 breast): 18.2 µM
GI50 (NCI-H23 lung): 3.02 µM
TGI (NCI-H23 lung): 13.7 µM
GI50 (UACC-62 melanoma): 10.1 µM
TGI (UACC-62 melanoma): 23.3 µM
GI50 (SF-268 CNS): 8.85 µM
TGI (SF-268 CNS): 25.1 µM
GI50 (HOP-92 NSCLC): 2.59 µM
TGI (HOP-92 NSCLC): 12.6 µM
GI50 (T-47D breast): 1.74 µM
TGI (T-47D breast): 3.4 µM
GI50 (PC-3 prostate): 2.87 µM
TGI (PC-3 prostate): 12.6 µM
GI50 (UO-31 renal): 5.09 µM
TGI (UO-31 renal): 19.8 µM
GI50 (SK-OV-3 ovarian): 10.4 µM
TGI (SK-OV-3 ovarian): 22.1 µM
GI50 (TK-10 renal): 8.45 µM
TGI (TK-10 renal): 22 µM
GI50 (SNB-75 CNS): 7.98 µM
TGI (SNB-75 CNS): 22.4 µM
GI50 (HL-60(TB) leukemia): 2.04 µM
TGI (HL-60(TB) leukemia): 4.2 µM
GI50 (OVCAR-4 ovarian): 3.11 µM
TGI (OVCAR-4 ovarian): 14.8 µM
GI50 (COLO 205 colon): 1.86 µM
TGI (COLO 205 colon): 3.33 µM
GI50 (A498 renal): 2.44 µM
TGI (A498 renal): 13.9 µM
GI50 (OVCAR-3 ovarian): 2.35 µM
TGI (OVCAR-3 ovarian): 5.73 µM
GI50 (A549 NSCLC): 3.78 µM
TGI (A549 NSCLC): 16.5 µM
GI50 (MOLT-4 leukemia): 2.12 µM
TGI (MOLT-4 leukemia): 5.28 µM
GI50 (LOX IMVI melanoma): 1.99 µM
TGI (LOX IMVI melanoma): 3.92 µM
GI50 (HT29 colon): 3.48 µM
TGI (HT29 colon): 11.1 µM
GI50 (NCI/ADR-RES ovarian): 4.14 µM
TGI (NCI/ADR-RES ovarian): 23.1 µM
GI50 (MALME-3M melanoma): 1.92 µM
TGI (MALME-3M melanoma): 3.69 µM
GI50 (786-0 renal): 6.31 µM
TGI (786-0 renal): 20.9 µM
GI50 (MDA-MB-231 breast): 4.3 µM
TGI (MDA-MB-231 breast): 16.9 µM
GI50 (SNB-19 CNS): 9.72 µM
TGI (SNB-19 CNS): 24.1 µM
